Measured values: US5098933A, “Pharmaceutically useful Michael addition products of unsaturated aldehydes and ketones and ascorbic acid” (Theracel Corporation, priority 1990, dated 1992)

What was measured:
splenic lymphocytes = assay: Immunotoxicity--Multi-dose: lymphocyte blastogenesis / stimulation (PHA, Con A, PWM); type: in vivo, mice
Protocol: The immunotoxicological potential of KCPBL was evaluated in this experiment in which the study drug was administered to CD-1 mice for fourteen days (100 or 1000 mg/kg/day), either perorally (by gavage) or intravenously (tail vein). On the fifteenth day, the mice were weighed and sacrificed. The spleen, lungs, liver, kidneys and thymus were removed from each animal, fixed in formalin and histopathologically evaluated. In addition, a differential white blood cell count was obtained for a peripheral blood sample as well as the following tests performed: spleen cell counts (performed with Coulter Counter) and lymphocyte stimulation assays using PHA, CON-A and PWM techniques.
[…] Mice were administered KCPBL daily for a total of fourteen days via the oral (0.2 ml of a 147.5 mg/ml solution or a 29.5 mg/ml solution by gavage) and intravenous route (0.2 ml of 147.5 mg/ml solution or a 29.5 mg/ml solution by tail vein) to achieve a dose of 100 or 1000 mg/kg, respectively. The test dose was prepared fresh daily and dissolved in sterile non-pyrogenic saline. On the fifteenth day the mice were weighed, sacrificed, and the spleens, lungs, livers, kidneys and thymuses removed. These organs were weighed and, except for the spleens, the formalin-fixed organs were analyzed by a veterinary pathologist. Only two randomly-selected sets of animal organs per treatment group were histopathologically evaluated since the remaining three animals were used to isolate splenic lymphocytes for use in cellular immunoassays.
(§1) A leukocyte differential was obtained on peripheral blood samples and spleen cell counts (performed with Coulter Counter), and an IL-2 induction assessment as well as standard lymphocyte stimulation assays using PHA, CON-A and PWM conducted.
(§2) The individual spleens of three mice from control and test groups were processed to isolate lymphocytes and the protocols for lymphocyte blastogenesis, IL-2 induction and assay were performed. The remaining two mice in each group were sacrificed and their lungs, liver, kidney, and spleen were fixed in formalin and sent to AnMed Biosafe for histopathologic examination.

IL-2 = assay: Immunotoxicity--Multi-dose: IL-2 induction; type: in vivo, mice
Protocol: The study incorporated five treatment groups into its design: group 1, sham intravenous control; group 2, 100 mg/kg/day perorally; group 3, 1000 mg/kg/day intravenously; group 4, […], and, group 5, 100 mg/kg/day intravenously. Mice were administered KCPBL daily for a total of fourteen days via the oral (0.2 ml of a 147.5 mg/ml solution or a 29.5 mg/ml solution by gavage) and intravenous route (0.2 ml of 147.5 mg/ml solution or a 29.5 mg/ml solution by tail vein) to achieve a dose of 100 or 1000 mg/kg, respectively. The test dose was prepared fresh daily and dissolved in sterile non-pyrogenic saline. On the fifteenth day the mice were weighed, sacrificed, and the spleens, lungs, livers, kidneys and thymuses removed. These organs were weighed and, except for the spleens, the formalin-fixed organs were analyzed by a veterinary pathologist. Only two randomly-selected sets of animal organs per treatment group were histopathologically evaluated since the remaining three animals were used to isolate splenic lymphocytes for use in cellular immunoassays.
as §1, §2

[1] = system: IgM plaque-forming cells to sheep erythrocytes; assay: Immunomodulation panel: IgM plaque-forming response to SRBC; type: in vivo, C57BL/6J mice; design: Anti-SRBC Plaque Forming Cells: unit not given here
Protocol: Daily intraperitoneal injections of KCPBL were administered to normal animals and immunological responsiveness to mitogens and specific antigen evaluated.
Inbred C57BL/6J mice were obtained from Jackson Laboratories, Bar Harbor, Me. The animals were held for one week before use in an experiment. Prior to commencement of a study, the animals were placed into groups and weighed.
Doses and schedule--Doses were selected to bracket the range generally known to be immunostimulatory in past experiments, 1, 10, and […] daily for four days.
Immunization--All animals except for sham controls were injected with 0.5 ml of a 2% suspension of sheep erythrocyte on day zero. This occurred two days following any pretreatment and the day before the initiation of study drug administration.
Sacrifice--Animals were sacrificed by cervical dislocation on day five. The spleens were surgically removed and the following immunological evaluations conducted.
As an assessment of immunopathology in the above screening test panel, the cellularity of the spleen was evaluated by determination of the total number of splenocytes harvested. Humoral-mediated immunity was measured by enumerating IgM plaque-forming cells to the T-dependent antigen sheep erythrocytes. Cell-mediated immunity was evaluated as described above by determination of the ability of the splenocytes to produce the lymphokine interleukin-2 in response to stimulation by the mitogen concanavalin-A. Another measurement of cell-mediated immunity was the responsiveness of the splenic lymphocytes to the mitogens concanavalin-A (Con-A); phytohemagglutinin (PHA) and pokeweed mitogen (PWM) in the lymphocyte blastogenesis assay. In the latter test, the activation and proliferation of the lymphocytes to the mitogens represents the capability of the cells to sequentially pass from G0 to G1 and the S phse of the cell cycle. The responsiveness of the cells was measured by the uptake of radiolabeled 14C-thymidine.

[2] = treated vs sham-injected controls

With `O=C1CCC(C2(O)C(=O)OC3C(O)COC32O)C1` (stereo not shown) [KCPBL] the “Lymphocyte Blastogenesis, Con A” value (splenic lymphocytes; 100 mg/kg IV (group 5)) was 17292 ± 3202, the “Lymphocyte Blastogenesis, PHA” value (splenic lymphocytes; 100 mg/kg IV (group 5)) was 8513 ± 3950 and the “Lymphocyte Blastogenesis, PWM” value (splenic lymphocytes; 100 mg/kg IV (group 5)) was 7125 ± 3899. For the same compound, the “Lymphocyte Blastogenesis, RPMI” value (splenic lymphocytes; 100 mg/kg IV (group 5)) was 234 ± 116, the “Lymphocyte Blastogenesis, Con A” value (splenic lymphocytes; 100 mg/kg P.O. (group 4)) was 18948 ± 3543 and the “Lymphocyte Blastogenesis, PHA” value (splenic lymphocytes; 100 mg/kg P.O. (group 4)) was 13432 ± 4075. The “Lymphocyte Blastogenesis, PWM” value (splenic lymphocytes; 100 mg/kg P.O. (group 4)) was 6733 ± 1181, the “Lymphocyte Blastogenesis, RPMI” value (splenic lymphocytes; 100 mg/kg P.O. (group 4)) was 307 ± 52 and the “Lymphocyte Blastogenesis, Con A” value (splenic lymphocytes; 1000 mg/kg IV (group 3)) was 14471 ± 2913. For the same compound, the “Lymphocyte Blastogenesis, PHA” value (splenic lymphocytes; 1000 mg/kg IV (group 3)) was 4473 ± 1181, the “Lymphocyte Blastogenesis, PWM” value (splenic lymphocytes; 1000 mg/kg IV (group 3)) was 4402 ± 3641 and the “Lymphocyte Blastogenesis, RPMI” value (splenic lymphocytes; 1000 mg/kg IV (group 3)) was 203 ± 122. The “Lymphocyte Blastogenesis, Con A” value (splenic lymphocytes; 1000 mg/kg P.O. (group 2)) was 15151 ± 627, the “Lymphocyte Blastogenesis, PHA” value (splenic lymphocytes; 1000 mg/kg P.O. (group 2)) was 8189 ± 1602 and the “Lymphocyte Blastogenesis, PWM” value (splenic lymphocytes; 1000 mg/kg P.O. (group 2)) was 4896 ± 1547. The “Lymphocyte Blastogenesis, RPMI” value (splenic lymphocytes; 1000 mg/kg P.O. (group 2)) was 244 ± 97, the “LSA response to PHA, CON-A and PWM lectins” value (splenic lymphocytes; [2]) was “comparable” and the IL-2 (IL-2; 100 mg/kg IV (group 5)) was 41.15 HMU/MI. It also gave an IL-2 (IL-2; 100 mg/kg P.O. (group 4)) of 44.81 ± 20.8 HMU/MI, an IL-2 (IL-2; 1000 mg/kg IV (group 3)) of 18.12 ± 10.50 HMU/MI and an IL-2 (IL-2; 1000 mg/kg P.O. (group 2)) of 21.11 ± 13.69 HMU/MI. For the same compound, the IL-2 production (IL-2; [2]) was “comparable”, the “PFC increase, significance” value ([1]; 1 mg/kg) was “values higher than the control group but the difference was not statistically significant” and the “Anti-SRBC Plaque Forming Cells” value ([1]; 1.0 mg/kg i.p.) was 192.8 ± 59. For the same compound, the “PFC increase, significance” value ([1]; 100 and 10 mg/kg) was “A significant increase in PFC”.
